# pIC50: −log10 of the molar value.
# Key:
# Microsomal stability [1] = assay type: in vitro ADME, dog (Beagle); settings: Dog, 1 μmol/L
# Description: (§1) Metabolic stability: liver microsomes and hepatocytes from human, mouse (CD1), rat (Sprague Dawley) and dog (Beagle) were obtained from Invitrogen. RXC004 (1 μmol/L) was incubated at 37°C with microsomes (0.5 mg · mL^−1) or hepatocytes (0.5 × 10^6 cells · mL^−1). Aliquots were removed at 0–45 minutes and RXC004 concentrations determined by LC/MS-MS analysis. Half-life (T1/2) and intrinsic clearance (CLint) were calculated as described in ref. [18].
# [2] = test system: Wnt5a secretion from L-Wnt5a cells; test: Wnt secretion assay; assay type: cell-based; settings: 300 nmol/L, 48 hours
# Description: L-Wnt5a cells (L cells overexpressing Wnt5a; ATCC CRL-2814) were treated with RXC004 (300 nmol/L) or DMSO for 48 hours. Wnt5a secreted into media was detected by Western blotting using anti-Wnt5a antibody (Cell Signaling Technology #2530).
# MDR1-MDCKII cells = test: Permeability in MDR1-MDCKII cells; assay type: in vitro ADME; settings: MDR1-MDCKII cells
# Description: (§2) Permeability of RXC004 was assessed in MDR1-MDCKII (Netherlands Cancer Institute) and Caco-2 cells (Merck Life Sciences). RXC004 (10 μmol/L) was added to either apical or basolateral chamber for 2 hours at 37°C, then an aliquot from the opposite side of the monolayer was removed and quantified by LC/MS-MS. Apparent permeability (Papp) was calculated according to standard practice ([20]).
# MDR1 = test: Permeability in MDR1-MDCKII cells; assay type: in vitro ADME; settings: dog, MDCK-MDR1, 10 μmol/L, 2 hours
# Description: as §2
# Microsomal stability [3] = assay type: in vitro ADME, mouse (CD1); settings: Mouse, 1 μmol/L
# Description: as §1
# [4] = test system: functional Wnt production from mouse L-Wnt3a cells; test: Wnt reporter assay (L-Wnt3a conditioned media on LEADING LIGHT Wnt Reporter Cell Line); assay type: cell-based
# Description: Reporter Assay: Media from L-Wnt3a cells (L cells overexpressing Wnt3a; ATCC CRL-2647) treated with a concentration-series of RXC004, was incubated with the LEADING LIGHT Wnt Reporter Cell Line (Enzo life sciences; ENZ-61002-0001). Luciferase was detected using the ONE-Glo Luciferase Assay System (Promega E6120), data were normalized to DMSO-treated controls and IC50 values determined. Recombinant Wnt3a (Bio-Techne #1324-WN-010) was used at 1 μg/mL. β-catenin expression: L-Wnt3a cells were treated with RXC004 (100 nmol/L) or DMSO (0.1%) for 24 hours. Cellular β-catenin protein levels were quantified by staining with anti-β-catenin (AlexaFluor488, BD 562505) and assessment using an Agilent Novocyte-3000 flow cytometer.
# Plasma protein binding = assay type: in vitro ADME
# Description: Plasma protein binding: Mouse, rat, dog, and human plasmas were obtained from TCS Biosciences Ltd and Sera Laboratories Ltd. A total of 20 μmol/L RXC004 in 10% plasma diluted with phosphate buffer was dialyzed against phosphate buffer for 18 hours at 37°C. The concentration of RXC004 each side of the dialysis plate was determined by LC/MS-MS. Results were corrected to 100% plasma.
# [5] = test system: cells with upstream aberrations in Wnt pathway components; test: Cell-cycle analysis by flow cytometry; assay type: cell-based, human; settings: 100 nmol/L, 3 days
# Description: For concentration–response effects on gene expression, Single-Shot Cell Lysis kit (Bio-Rad #172-5080) was used for RNA extraction, data were normalized to DMSO-treated controls, and IC50 values determined. For cell-cycle analysis, the cancer cell line panel was treated with RXC004 (100 nmol/L) or DMSO (0.1%) for 3 days. Cell-cycle profiles were determined by staining with propidium iodide (Thermo Fisher Scientific #P3566) and phospho-Ser10-Histone-H3 (AlexaFluor-647, BioLegend #650806), and quantified using an Agilent Novocyte-3000 flow cytometer. For in vitro growth curve analysis, HPAF-II and SNU-1411 cells were seeded in 96-well plates at 2,000 cells/well and imaged on the IncuCyte (Sartorius) at 10× magnification with 4 fields of view per well. Total cell object count over time was calculated using the Adherent Cell-by-Cell analysis module.
# Microsomal stability [6] = assay type: in vitro ADME; settings: Human, 1 μmol/L
# Description: as §1
# Porcupine = target: T1, Porcupine (Homo sapiens, UniProt Q9H237); test: Wnt palmitoylation assay (GFP-Wnt1-Fc in HEK293T cells); assay type: cell-based; settings: 100 nmol/L; GFP-Wnt1-Fc in HEK293T cells with alkyne palmitate
# T1 construct: HEK293T cells were transfected with GFP-Wnt1-Fc constructs; endogenous in cells; host or cells: HEK293T
# T1 sequence (Q9H237 whole entry): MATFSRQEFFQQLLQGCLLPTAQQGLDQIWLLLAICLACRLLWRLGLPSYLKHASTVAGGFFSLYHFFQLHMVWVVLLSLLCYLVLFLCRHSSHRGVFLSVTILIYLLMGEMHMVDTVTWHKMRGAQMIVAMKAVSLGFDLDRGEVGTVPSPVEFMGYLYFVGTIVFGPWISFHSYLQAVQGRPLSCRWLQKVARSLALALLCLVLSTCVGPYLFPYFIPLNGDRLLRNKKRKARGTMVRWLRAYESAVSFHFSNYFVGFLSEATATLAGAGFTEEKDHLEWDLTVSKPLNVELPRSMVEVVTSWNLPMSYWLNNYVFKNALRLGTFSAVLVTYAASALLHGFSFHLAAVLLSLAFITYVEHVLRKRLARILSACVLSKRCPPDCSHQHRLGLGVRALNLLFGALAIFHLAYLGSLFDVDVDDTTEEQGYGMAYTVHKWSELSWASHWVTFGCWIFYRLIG
# Description: Palmitoylation of Wnt was performed by the Burris group, under a fee-for-service agreement, and was detected as described in Galli and colleagues ([16]). Briefly, HEK293T cells were transfected with GFP-Wnt1-Fc constructs, followed by overnight incubation with alkyne palmitate (Alk-C16) in the presence of DMSO or 100 nmol/L RXC004. Cells were lysed and A/G agarose beads used to pull down GFP-Wnt1-Fc, which was then subjected to click chemistry to covalently attach biotin azide to any attached alkyne palmitate. Following SDS-PAGE and Western blotting, palmitoylation of Wnt was detected using Streptavidin IR 800 dye. GFP detection served as a transfection and/or loading control.
smiles,measurement,setting,value
"Cc1c(-c2ccnc(C(F)(F)F)c2)ncn1CC(=O)Nc1ccc(-c2cnccn2)cn1 [RXC004, 2-[5-methyl-4-[2-(trifluoromethyl)-4-pyridyl]imidazol-1-yl]-N-(5-pyrazin-2-yl-2-pyridyl)acetamide]",Microsomal stability: CLint,Microsomal stability [1],31.6 μL minute^−^1 · mg^−^1
same,Wnt5a secretion into the media,[2],inhibited Wnt5a secretion
same,efflux,MDR1-MDCKII cells,some evidence of efflux in MDR1-MDCKII cells
same,"Papp A→B at 2 h, 10 μmol/L","MDR1; apical to basolateral, read-out: MDCK PappA-B",15 ×10⁻⁶ cm/s
same,"Papp B→A at 2 h, 10 μmol/L","MDR1; basolateral to apical, read-out: MDCK PappB-A",51.9 ×10⁻⁶ cm/s
same,Microsomal stability: CLint,Microsomal stability [3],3.9 μL minute^−^1 · mg^−^1
same,pIC50,"[4]; Mus musculus, L Wnt-3A, L-Wnt3a cells treated with concentration-series, read-out: IC50, β-catenin responsive luciferase reporter activated by conditioned media",10.19
same,effect on downstream Wnt signaling (rescue by recombinant Wnt3a),[4]; recombinant Wnt3a 1 μg/mL,no effect on downstream Wnt signaling
same,Plasma protein binding (% free),Plasma protein binding; Dog,2.5 % free
same,Plasma protein binding (% free),Plasma protein binding; Human,4.2 % free
same,Plasma protein binding (% free),Plasma protein binding; Mouse,7.5 % free
same,Plasma protein binding (% free),Plasma protein binding; Rat,5.0 % free
same,expression of mitosis marker phospho-histone-H3,[5],strongly inhibited expression of the mitosis marker phospho-histone-H3
same,proportion of cells in S-phase,[5],reduced the proportion of cells in S-phase
same,Microsomal stability: CLint,Microsomal stability [6],6.0 μL minute^−^1 · mg^−^1
same,palmitoylation of Wnt,Porcupine,inhibited palmitoylation of Wnt
